Tested on: IL-18
Assay: IL-18 ELISA in medium of microglial cultures
Type: cell-based, mouse
Conditions: 1 μM pretreatment 1 h, then LPS 0.1 μg/mL 24 h
Procedure: Primary microglial cell cultures were derived from the cortices of 1–2-day-old mouse pups (1pup/1 brain/1 flask). After decapitation, the brains were extracted and immediately placed in cold Hanks’ Balanced Salt Solution (HBSS, Gibco, New York, NY, USA) on ice. The brains were washed at least three times with 7 mL of HBSS and then transferred to 10 mL of fresh culture media consisting of Dulbecco’s Modified Eagle Medium (DMEM) with GlutaMax and high glucose (4.5 g/L) (Gibco, New York, NY, USA) on ice. The tissue was minced and incubated in HBSS containing glucose, bovine serum albumin (BSA; Sigma-Aldrich, St. Louis, MO, USA), and HEPES (Gibco, New York, NY, USA) with 0.025% trypsin at 37 °C for 20 min. […] The purity of microglial cell cultures was assessed as we have shown previously. […]
To assess the effect of test compounds on IL-18, IL-6, and IL-10 levels, the medium of microglial cell cultures was collected 24 h after LPS treatment. The protein levels of the cytokines IL-18 (Mouse interleukin 18 ELISA kit), IL-6 (Mouse interleukin 6 ELISA kit), and IL-10 (Mouse interleukin 10 ELISA kit; all obtained from FineTest, Wuhan, China) were measured using commercially available enzyme-linked immunosorbent assay kits according to the manufacturer’s instructions. […]

SMILES	LPS-induced increase of IL-18 level
N#Cc1ccc(C[C@H](NC(=O)Nc2ccc(F)cc2)C(=S)N2CCc3ccccc32)cc1 [7b, (S)-1-[3-(4-Cyanophenyl)-1-(indolin-1-yl)-1-thioxopropan-2-yl]-3-(4-fluorophenyl)urea]	able to counterbalance the LPS-induced increase
N#Cc1ccc(C[C@H](NC(=O)Nc2ccc(Br)cc2)C(=S)N2CCc3ccccc32)cc1 [8b, (S)-1-(4-Bromophenyl)-3-[3-(4-cyanophenyl)-1-(indolin-1-yl)-1-thioxopropan-2-yl]urea]	able to counterbalance the LPS-induced increase
